Measurements from patent publication US4288437A, “2-[(Amino)-aryl-methylene]-benzo[b]thiophen-3(2H)-ones” (Boehringer Ingelheim GmbH, priority 1979, dated 1981).
Like-named read-outs stand apart in the source and are kept apart here.

Experiments:
[1] = Orienting acute toxicity in mice; settings: mouse, in vivo, po, observation period 7 days
Method: The orienting acute toxicity of the compounds was determined after administering a dose to groups of 6 or 10 mice each with body weights between 10 and 26 gm (observation period: 7 days).

[2] = test system: tonic extensor spasm of the rear legs of male mice under maximum electric shock; test: Anticonvulsant activity in mice (inhibition of tonic extensor spasm under maximum electric shock); format: in vivo, male SPF mice (Chbb:NMRI); settings: Mus musculus, po, p.o., 10 mice/dose
Method: 1. Anticonvulsant activity in mice
The anticonvulsant activity was tested as the inhibition of the tonic extensor spasm of the rear legs of male mice under maximum electric shock.
The test animals were male SPF mice (Chbb:NMRI) weighing 20 to 26 g which, up to one hour before oral administration of the test compound, had access to standard feed and drinking water.
The test procedure was based on that of SWINYARD, BROWN and GOODMAN (J. Pharmacol. Exp. Ther. 106, 319 [1952]). The electrical shock equipment was manufactured in accordance with information provided by WOODBURY and DAVENPORT (Arch. int. Pharmacodyn. 92, 97 [1952]). The electrical stimuli were applied to the heads of the animals above the eyes using chamois-covered steel ball electrodes moistened with a 0.9% NaCl solution. The stimulus lasted 0.2 sec. using alternating current of 50 Hz and 50 mA. There was a […] and then a tonic stretching spasm of the extremities in the case of all the controls.
The substance to be tested was suspended in a 1% tylose slurry and was perorally administered in a volume of 0.1 ml/10 gm mouse to 10 mice/dose. […], and the ED50 values were determined as the dosages sufficient to protect 50% of the animals against the tonic stretching spasm of the rear extremities, either graphically or by the method of LITCHFIELD and WILCOXON (J. Pharmacol. Exp. Ther. 96, 99 [1949]).

[3] = 0.5 h, shock 30 minutes after administration, read-out: ED50, 30 minutes
[4] = 2.5 h, shock 150 minutes after administration, read-out: ED50, 150 minutes
[5] = 5 h, shock 300 minutes after administration, read-out: ED50, 300 minutes

SMILES | LD50 at 168 h [1] [mg/kg] | ED50 [2, 3] [mg/kg] | ED50 [2, 4] [mg/kg] | ED50 [2, 5] [mg/kg]
Cc1ccccc1/C(N)=C1\Sc2ccccc2C1=O [E, (E)-2-[(amino)-(2-methyl-phenyl)methylene]-benzo[b]-thiophen-3(2H)-one] | > 1000 | 22.8 | 13.3 | 15.7
CN/C(=C1/Sc2ccccc2C1=O)c1ccccc1 [B, (E)-2-[(methylamino)phenylmethylene]-benzo[b]thiophen-3(2H)-one] | > 1000 | 90 | 38 | 49
N/C(=C1/Sc2ccccc2C1=O)c1ccccc1Cl [C, (E)-2-[(amino)-(2-chloro-phenyl)methylene]-benzo[b]thiophen-3(2H)-one] | 500 to 1000 | 7 | 4.4 | 5
N/C(=C1/Sc2ccccc2C1=O)c1ccccc1 [A, (E)-2-[(amino)phenylmethylene]-benzo[b]thiophen-3(2H)-one] | 2400 | 12.8 | 37 | 46
CCN/C(=C1/Sc2ccccc2C1=O)c1ccccc1 [F, (E)-2-[(ethylamino)phenylmethylene]-benzo[b]thiophen-3(2H)-one] | > 1000 | 22.5 | 54.6 | 79
O=C1/C(=C(\NCCO)c2ccccc2)Sc2ccccc21 [D, (E)-2-{[(2-hydroxy-ethyl)amino]phenylmethylene}benzo[b]thiophen-3(2H)-one] | > 1000 | 33 | 41 | 42.5
